Reference: patent US20160158200A1, “Combinations of Hepatitis C Virus Inhibitors” (priority 2013, published 2016)

Tested on: HCV genotype-1a variant with glutamine 30 changed to glutamate in the NS5A protein
Assay type: cell-based
Conditions: test compound titrated with BMS-790052 fixed at 200 nM; genotype 1a Q30E replicon
Procedure, shortened: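 Synergy was assessed by combining several fixed amounts of an NS5A-targeting compound with a titration of the second compound of interest.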

SMILES | Fold-Synergistic 1a (Q30E) [fold]
CC(C)(C)[C@H](NC(=O)C(=O)N1CCOCC1)c1nc(-c2ccc(-c3ccc(-c4c[nH]c([C@@H](NC(=O)C(=O)N5CCOCC5)C(C)(C)C)n4)cc3)cc2)c[nH]1 [Compound W-25] | >100
CC(C)[C@H](NC(=O)c1sccc1F)c1ncc(-c2ccc(-c3ccc(-c4cnc([C@@H](NC(=O)c5sccc5F)C(C)C)[nH]4)cc3)cc2)[nH]1 [Compound Y-28] | >100
CC(C)(C)C(NC(=O)C1CCCO1)c1nc(-c2ccc(-c3ccc(-c4c[nH]c(C(NC(=O)C5CCCO5)C(C)(C)C)n4)cc3)cc2)c[nH]1 [Compound L-64] | >100
CCOC(=O)C1(C(=O)N[C@H](c2nc(-c3ccc(-c4ccc(-c5c[nH]c([C@@H](NC(=O)C6(C(=O)OCC)CCCCC6)C(C)(C)C)n5)cc4)cc3)c[nH]2)C(C)(C)C)CCCCC1 [Compound N-146] | >100
CCNC(=O)NC1(C(=O)N[C@H](c2nc(-c3ccc(-c4ccc(-c5c[nH]c([C@@H](NC(=O)C6(NC(=O)NCC)CCCCC6)C(C)(C)C)n5)cc4)cc3)c[nH]2)C(C)(C)C)CCCCC1 [Compound W-251] | >100
CC(C)CC(=O)NC1(c2ncc(-c3ccc(-c4ccc(-c5cnc(C6(NC(=O)CC(C)C)CC6)[nH]5)cc4)cc3)[nH]2)CC1.O=C(O)C(F)(F)F.O=C(O)C(F)(F)F [Compound N-21] | <10
CC(C)[C@H](NC(=O)[C@H](NC(=O)OCC(C)(C)C)C(C)C)c1ncc(-c2ccc(-c3ccc(-c4cnc([C@@H](NC(=O)[C@H](NC(=O)OCC(C)(C)C)C(C)C)C(C)C)[nH]4)cc3)cc2)[nH]1 [Compound S-253] | >100
CC(C)[C@H](NC(=O)[C@H](C)c1ccccc1)c1ncc(-c2ccc(-c3ccc(-c4cnc([C@@H](NC(=O)[C@H](C)c5ccccc5)C(C)C)[nH]4)cc3)cc2)[nH]1 [Compound P-64] | >100
CC(C)(C)OC(=O)NC1CCCCC1C(=O)N[C@H](c1nc(-c2ccc(-c3ccc(-c4c[nH]c([C@@H](NC(=O)C5CCCCC5NC(=O)OC(C)(C)C)C(C)(C)C)n4)cc3)cc2)c[nH]1)C(C)(C)C (single isomer, unassigned) [Compound W-23B] | >100
Cc1ncoc1C(=O)N[C@H](c1ncc(-c2ccc(-c3ccc(-c4cnc([C@@H](NC(=O)c5ocnc5C)C(C)C)[nH]4)cc3)cc2)[nH]1)C(C)C [Compound P-93] | >100
CCOC(=O)N[C@H](c1ncc(-c2ccc(-c3ccc(-c4cnc([C@@H](NC(=O)OCC)C(C)C)[nH]4)cc3)cc2)[nH]1)C(C)C [Compound S-207] | >10
COC(=O)N[C@@H](C(=O)N[C@H](c1ncc(-c2ccc(-c3ccc(-c4cnc([C@@H](NC(=O)[C@H](NC(=O)OC)c5ccccc5)C(C)C)[nH]4)cc3)cc2)[nH]1)C(C)C)c1ccccc1 [Compound P-103] | >100
CC(C)C(NC(=O)C(=O)N(C(C)C)C1CC1)c1nc(-c2ccc(-c3ccc(-c4c[nH]c(C(NC(=O)C(=O)N(C(C)C)C5CC5)C(C)C)n4)cc3)cc2)c[nH]1 (centres unmarked) [Compound W-55] | >100
COC(=O)NC(C(=O)NC(c1ncc(-c2ccc(-c3ccc(-c4cnc(C5CCCN5C(=O)C(NC(=O)OC)C(C)C)[nH]4)cc3)cc2)[nH]1)C(C)(C)C)C(C)C (centres unmarked) [Compound B-196] | >10
CC(C)[C@H](NC(=O)c1cc(Cl)ccc1F)c1ncc(-c2ccc3c(c2)Cc2cc(-c4cnc([C@@H](NC(=O)c5cc(Cl)ccc5F)C(C)C)[nH]4)ccc2-3)[nH]1.O=C(O)C(F)(F)F [Compound N-73] | >100
CC(=O)N(C)C1(C(=O)N[C@H](c2nc(-c3ccc(-c4ccc(-c5c[nH]c([C@@H](NC(=O)C6(N(C)C(C)=O)CC6)C(C)(C)C)n5)cc4)cc3)c[nH]2)C(C)(C)C)CC1.O=C(O)C(F)(F)F.O=C(O)C(F)(F)F [Compound L-11] | >100
CC1(C(=O)NC(c2nc(-c3ccc(-c4ccc(-c5c[nH]c(C(NC(=O)C6(C)CCCO6)C(C)(C)C)n5)cc4)cc3)c[nH]2)C(C)(C)C)CCCO1.O=C(O)C(F)(F)F.O=C(O)C(F)(F)F (mixture of isomers) [Compound L-69] | >100
CC(C)(C)[C@H](NC(=O)c1ccccc1O)c1nc(-c2ccc(-c3ccc(-c4c[nH]c([C@@H](NC(=O)c5ccccc5O)C(C)(C)C)n4)cc3)cc2)c[nH]1 [Compound Y-72] | >100
CC(C)(C)OC(=O)N1CC2(CC(C(=O)NC(c3nc(-c4ccc(-c5ccc(-c6c[nH]c(C(NC(=O)C7CC8(C7)CN(C(=O)OC(C)(C)C)C8)C(C)(C)C)n6)cc5)cc4)c[nH]3)C(C)(C)C)C2)C1 [Compound L-57] | >100
Cc1cc(-c2ccc(-c3c[nH]c([C@@H](NC(=O)C4CCC(F)(F)CC4)C(C)C)n3)cc2)ccc1-c1c[nH]c([C@@H](NC(=O)C2CCC(F)(F)CC2)C(C)C)n1.O=C(O)C(F)(F)F [Compound N-82] | >100
CC(C)(C)OC(=O)NC1(C(=O)N[C@H](c2nc(-c3ccc(-c4ccc(-c5c[nH]c([C@@H](NC(=O)C6(NC(=O)OC(C)(C)C)CCC6)C(C)(C)C)n5)cc4)cc3)c[nH]2)C(C)(C)C)CCC1.O=C(O)C(F)(F)F.O=C(O)C(F)(F)F [Compound L-5] | >100
CC(C)(C)[C@H](NC(=O)C1CCN(S(C)(=O)=O)CC1)c1nc(-c2ccc(-c3ccc(-c4c[nH]c([C@@H](NC(=O)C5CCN(S(C)(=O)=O)CC5)C(C)(C)C)n4)cc3)cc2)c[nH]1 [Compound S-255] | >100
CC(C)(C)[C@H](NC(=O)C1(N2CCC(F)(F)CC2)COC1)c1nc(-c2ccc(-c3ccc(-c4c[nH]c([C@@H](NC(=O)C5(N6CCC(F)(F)CC6)COC5)C(C)(C)C)n4)cc3)cc2)c[nH]1 [Compound W-63] | >100
CC(C)[C@H](NC(=O)C(C)(C)F)c1ncc(-c2ccc3c(c2)CCc2cc(-c4cnc([C@@H](NC(=O)C(C)(C)F)C(C)C)[nH]4)ccc2-3)[nH]1.O=C(O)C(F)(F)F [Compound N-75] | >100
O=C(C(=O)N1C[C@H](O)C[C@H]1c1nc(-c2ccc(-c3ccc(-c4c[nH]c([C@@H]5C[C@@H](O)CN5C(=O)C(=O)N5CCC(F)(F)CC5)n4)cc3)cc2)c[nH]1)N1CCC(F)(F)CC1 [Compound L-142] | >100
CC(C)[C@H](NC(=O)c1ccc(F)cc1F)c1ncc(-c2ccc(-c3ccc(-c4cnc([C@@H](NC(=O)c5ccc(F)cc5F)C(C)C)[nH]4)cc3)cc2)[nH]1 [Compound S-89] | >100
CC(C)(C)[C@H](NC(=O)c1cccc(Cl)c1)c1ncc(C#Cc2ccc3cc(-c4cnc([C@@H](NC(=O)c5cccc(Cl)c5)C(C)(C)C)[nH]4)ccc3c2)[nH]1 [Compound B3] | >100
CC(C)(C)[C@H](NC(=O)C1CCC(F)(F)CC1)c1ncc(-c2ccc(-c3ccc(-c4ccc5nc([C@@H](NC(=O)C6CCC(F)(F)CC6)C(C)(C)C)[nH]c5c4)cc3)cc2)[nH]1 [Compound B56] | >100
CC(C)C(=O)N[C@H](c1ncc(-c2ccc(-c3ccc(-c4cnc([C@@H](NC(=O)C(C)C)C(C)C)[nH]4)cc3)cc2)[nH]1)C(C)C [Compound S-7] | >100
